Molecules are shown by their SMILES.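 Each compound was tested at five concentrations against cells in 96-well plates for 48 hours. Abbreviation: GI50, concentration required for 50% inhibition of growth. TGI marks complete inhibition of growth.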 Some results are limits rather than exact numbers.

Test systems include SW-620 colon; HCT-116 colon; RPMI-8226 leukemia; IGROV1 ovarian; RXF 393 renal; EKVX NSCLC; NCI/ADR-RES ovarian; NCI-H522 lung; SK-MEL-5 melanoma; OVCAR-3 ovarian.
Common to all, as to test: NCI-60 cell line screen, 48 h

With `Oc1c(C(Nc2ccccn2)c2ccccc2)ccc2cccnc12` (stereo not given), the TGI in the assay on SW-620 colon was more than 100 µM; in the assay with HCT-116 colon it was 21.3 µM; in the assay with RPMI-8226 leukemia it was 29.3 µM; with IGROV1 ovarian it was 16.3 µM; with RXF 393 renal, 40.1 µM; in the assay on EKVX NSCLC it was 28.6 µM. In addition, the TGI in the assay with NCI/ADR-RES ovarian was found to be 8.73 µM; in the assay on NCI-H522 lung, 11.8 µM; in the assay with SK-MEL-5 melanoma, 15.5 µM; with OVCAR-3 ovarian it was 12.4 µM.

Take `COC(=O)C1=C(C)NC(=S)NC1c1ccc(N(CCCl)CCCl)cc1Cl` (stereo not given): the TGI was more than 100 µM in the assay on SW-620 colon; more than 100 µM in the assay with HCT-116 colon; more than 4.64 µM in the assay with RPMI-8226 leukemia; more than 89.1 µM in the assay on IGROV1 ovarian; more than 81.2 µM in the assay with RXF 393 renal; more than 37.8 µM with EKVX NSCLC. Further, the TGI with NCI/ADR-RES ovarian was more than 100 µM; in the assay on NCI-H522 lung it was 81.9 µM; in the assay with SK-MEL-5 melanoma, 20.1 µM; with OVCAR-3 ovarian, more than 94 µM.

On to `COc1ccc2c3ccnc(C(F)(F)F)c3n(CCCCN)c2c1`, for which the GI50 in the assay on SW-620 colon is 3.28 µM; in the assay with HCT-116 colon it was 3.84 µM; in the assay with RPMI-8226 leukemia, 3.05 µM; in the assay on IGROV1 ovarian it was 3.39 µM; with RXF 393 renal, 2.3 µM; with EKVX NSCLC, 5.42 µM. In addition, the GI50 in the assay with NCI/ADR-RES ovarian was 8.6 µM; in the assay on NCI-H522 lung it was 6.22 µM; with SK-MEL-5 melanoma, 2.83 µM; in the assay on OVCAR-3 ovarian it was 3.82 µM. For the same molecule, the TGI came to 14.6 µM in the assay with SW-620 colon; 13.4 µM with HCT-116 colon; 15.8 µM in the assay with RPMI-8226 leukemia; 14.5 µM in the assay on IGROV1 ovarian; 6.93 µM in the assay with RXF 393 renal; 23.6 µM in the assay with EKVX NSCLC. The TGI in the assay with NCI/ADR-RES ovarian is 28.1 µM; in the assay with NCI-H522 lung, 21.4 µM; in the assay with SK-MEL-5 melanoma, 9.05 µM; in the assay on OVCAR-3 ovarian it was 15.3 µM.

For the molecule `CC1=C(CCC(C)CO)O[C@H]2C[C@H]3[C@@H]4CC[C@H]5C[C@@H](O)CC[C@]5(C)[C@H]4CC(=O)[C@]3(C)[C@@H]12` (stereo not given in full), the TGI with SW-620 colon is more than 100 µM; in the assay with HCT-116 colon, 47.7 µM; with RPMI-8226 leukemia, 13.8 µM; in the assay on IGROV1 ovarian it was 55 µM; with RXF 393 renal it was 73.8 µM; with EKVX NSCLC it was more than 90.2 µM. Moreover, the TGI with NCI/ADR-RES ovarian was 40.6 µM; in the assay on NCI-H522 lung, 30.3 µM; in the assay with SK-MEL-5 melanoma, 23.5 µM; with OVCAR-3 ovarian, more than 60.9 µM.

Take `CC12CCC(C1)C(C)(C)C2OC(=O)c1ccccc1N` (stereo not given): the TGI with SW-620 colon was found to be 29.6 µM; in the assay on HCT-116 colon, 26.6 µM; with RPMI-8226 leukemia, 16.9 µM; with IGROV1 ovarian, 40.5 µM; with RXF 393 renal, 25.7 µM; with EKVX NSCLC it was 30.2 µM. Moreover, the TGI turned out to be 31.7 µM in the assay with NCI/ADR-RES ovarian, 22.7 µM in the assay with NCI-H522 lung, 31 µM with SK-MEL-5 melanoma and 30.8 µM with OVCAR-3 ovarian.

For `[N-]=[N+]=C(C(=O)CN1CCCC1=O)S(=O)(=O)c1ccccc1`, the TGI in the assay on SW-620 colon, with HCT-116 colon, with RPMI-8226 leukemia, in the assay on IGROV1 ovarian, in the assay on RXF 393 renal and in the assay with EKVX NSCLC was more than 100 µM each time. Also, the TGI in the assay with NCI/ADR-RES ovarian, in the assay with NCI-H522 lung, with SK-MEL-5 melanoma and with OVCAR-3 ovarian was more than 100 µM throughout.

With `CN1CCN(Cc2ccc(NC(=O)c3cncc(C#Cc4ccc(N)nc4)c3)cc2C(F)(F)F)CC1`, the GI50 with SW-620 colon is 0.893 µM; in the assay with HCT-116 colon, 0.596 µM; with RPMI-8226 leukemia, 1.05 µM; in the assay with IGROV1 ovarian, 0.476 µM; in the assay with RXF 393 renal it was 0.524 µM; in the assay on EKVX NSCLC, 1.16 µM. Also, the GI50 in the assay with NCI/ADR-RES ovarian is 1.9 µM; in the assay on NCI-H522 lung, 0.774 µM; in the assay on SK-MEL-5 melanoma it was 1.17 µM; in the assay on OVCAR-3 ovarian, 1.72 µM. In addition, the TGI with SW-620 colon worked out at 3.37 µM; with HCT-116 colon, 3.9 µM; in the assay on RPMI-8226 leukemia, 3.82 µM; with IGROV1 ovarian, 3.22 µM; in the assay on RXF 393 renal, 2.14 µM; in the assay on EKVX NSCLC it was 6.08 µM. Besides, the TGI in the assay on NCI/ADR-RES ovarian is 10.3 µM; in the assay with NCI-H522 lung, 6.2 µM; in the assay with SK-MEL-5 melanoma it was 3.24 µM; with OVCAR-3 ovarian, 7.88 µM.

As to `NC1CC(=O)c2c(-c3cccs3)sc(-c3cccs3)c21` (stereo not given), the GI50 with SW-620 colon is 9.11 µM; in the assay with HCT-116 colon it was 15.3 µM; in the assay with RPMI-8226 leukemia, 12.3 µM; in the assay on IGROV1 ovarian, 27.3 µM; in the assay on RXF 393 renal, 59.1 µM; with EKVX NSCLC, 51.3 µM. For the same molecule, the GI50 with NCI/ADR-RES ovarian is 29.5 µM; in the assay with NCI-H522 lung, 22.1 µM; in the assay with SK-MEL-5 melanoma, 28 µM; with OVCAR-3 ovarian, 26.1 µM. Besides, the TGI in the assay on SW-620 colon is 58 µM; in the assay with HCT-116 colon, 29.9 µM; with RPMI-8226 leukemia it was 49.7 µM; in the assay on IGROV1 ovarian, more than 100 µM; in the assay on RXF 393 renal it was more than 100 µM; with EKVX NSCLC it was more than 100 µM. Further, the TGI with NCI/ADR-RES ovarian is more than 100 µM; in the assay on NCI-H522 lung it was 87.5 µM; with SK-MEL-5 melanoma, more than 100 µM; with OVCAR-3 ovarian, 92.4 µM.

For the origin of these results see PubChem BioAssay (NCI).
